This test addresses T1, human B1R (Homo sapiens, UniProt P46663).
T1 construct: expressed in transfected cells; host or cells: CHO K1 cells (Chinese Hamster Ovary), stably transfected
T1 sequence (P46663 1-353): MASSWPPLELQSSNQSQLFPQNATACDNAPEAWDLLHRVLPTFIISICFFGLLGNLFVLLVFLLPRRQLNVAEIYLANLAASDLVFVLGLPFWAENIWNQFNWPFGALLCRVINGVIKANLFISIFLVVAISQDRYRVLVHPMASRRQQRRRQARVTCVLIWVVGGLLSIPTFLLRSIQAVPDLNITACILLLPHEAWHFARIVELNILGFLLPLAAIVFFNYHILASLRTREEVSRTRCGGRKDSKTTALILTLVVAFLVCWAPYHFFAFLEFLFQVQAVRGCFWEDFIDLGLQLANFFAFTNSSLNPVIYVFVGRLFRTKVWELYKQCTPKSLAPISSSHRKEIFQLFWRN
Briefly: Functional assay at bradykinin receptor 1 (B1R): Ca2+ fluorescence (Fluo-4) in FLIPR/Novostar, antagonist mode. The test is classed as cell-based. The note with it: test substance 10 µM; CHO K1 cells stably transfected with human B1R gene (hB1R-Zellen); agonist Lys-Des-Arg9-Bradykinin at EC80; % inhibition relative to maximal achievable inhibition; read-out: % Inhibierung (human B1R) bei 10 µM. An outline of the steps:
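Antagonism read as suppression of the Ca2+ rise in Fluo-4-loaded, hB1R-transfected CHO K1 cells when Lys-Des-Arg9-bradykinin (EC80) follows a 6–20 min compound preincubation. Maximal fluorescence counts, measured on FLIPR or Novostar, yield % inhibition relative to maximum; IC50 values come from concentration series run in duplicate or triplicate.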

For `COc1cc(C)c(S(=O)(=O)Cc2noc(C(=O)NCC3CCC(c4ccncc4)CC3)n2)c(C)c1` (stereo not shown) [SC-30, 3-[[(4-Methoxy-2,6-dimethyl-phenyl)sulfonyl]-methyl]-N-[(4-pyridin-4-yl-cyclohexyl)-methyl]-[1,2,4]oxadiazol-5-carbonsäure amid], the inhibition at 10 µM stood at 98%.

Regarding `COc1cc(C)c(S(=O)(=O)Cc2noc(C(=O)NC3CCC(c4ccncc4)CC3(C)C)n2)c(C)c1` (stereo not shown) [SC-31, N-(2,2-Dimethyl-4-pyridin-4-yl-cyclohexyl)-3-[[(4-methoxy-2,6-dimethyl-phenyl)sulfonyl]-methyl]-[1,2,4]oxadiazol-5-carbonsäure amid], the inhibition at 10 µM was found to be 97%.

Consider `COc1cc(C)c(S(=O)(=O)Cc2noc(CC(=O)NC3CCC(c4ccncc4)CC3(C)C)n2)c(C)c1` (stereo not shown) [SC-32, N-(2,2-Dimethyl-4-pyridin-4-yl-cyclohexyl)-2-[3-[[(4-methoxy-2,6-dimethyl-phenyl)sulfonyl]-methyl]-[1,2,4]oxadiazol-5-yl]-acetamid], for which the inhibition at 10 µM stood at 98%.

On to `COc1cc(C)c(S(=O)(=O)Cc2noc(CC(=O)N(C)C3CCC4(CCN(C)CC4)CC3(C)C)n2)c(C)c1` (stereo not shown) [SC-33, 2-[3-[[(4-Methoxy-2,6-dimethyl-phenyl)sulfonyl]-methyl]-[1,2,4]oxadiazol-5-yl]-N-methyl-N-(4,4,9-trimethyl-9-azaspiro[5.5]undecan-3-yl)-acetamid], for which the inhibition at 10 µM is 100%.

For `COc1cc(C)c(S(=O)(=O)Cc2noc(CC(=O)NC3CCC(O)CC3(C)C)n2)c(C)c1` (stereo not shown) [SC-35, N-(4-Hydroxy-2,2-dimethyl-cyclohexyl)-2-[3-[[(4-methoxy-2,6-dimethyl-phenyl)sulfonyl]-methyl]-[1,2,4]oxadiazol-5-yl]-acetamid], the inhibition at 10 µM amounted to 100%.

For `COc1cc(C)c(S(=O)(=O)Cc2noc(CC(=O)NC3CCOCC3(C)C)n2)c(C)c1` (stereo not shown) [SC-36, N-(3,3-Dimethyl-tetrahydro-pyran-4-yl)-2-[3-[[(4-methoxy-2,6-dimethyl-phenyl)sulfonyl]-methyl]-[1,2,4]oxadiazol-5-yl]-acetamid], the inhibition at 10 µM was found to be 98%.

Take `COc1cc(C)c(S(=O)(=O)Cc2noc(CC(=O)NC3CCC(c4ccncc4)CC3)n2)c(C)c1` (stereo not shown) [SC-37, 2-[3-[[(4-Methoxy-2,6-dimethyl-phenyl)sulfonyl]-methyl]-[1,2,4]oxadiazol-5-yl]-N-(4-pyridin-4-yl-cyclohexyl)-acetamid]: the inhibition at 10 µM was 100%.

Turning to `COc1cc(C)c(S(=O)(=O)Cc2noc(CC(=O)NC3CCN(C4CCOCC4)CC3(C)C)n2)c(C)c1` (stereo not shown) [SC-39, N-(3,3-Dimethyl-1-tetrahydro-pyran-4-yl-piperidin-4-yl)-2-[3-[[(4-methoxy-2,6-dimethyl-phenyl)sulfonyl]-methyl]-[1,2,4]oxadiazol-5-yl]-acetamid], the inhibition at 10 µM is 100%.

As to `COc1cc(C)c(S(=O)(=O)Cc2noc(CC(=O)NC3CCC(c4ccnc(OC)c4)CC3(C)C)n2)c(C)c1` (stereo not shown) [SC-40, 2-[3-[[(4-Methoxy-2,6-dimethyl-phenyl)sulfonyl]-methyl]-[1,2,4]oxadiazol-5-yl]-N-[4-(2-methoxy-pyridin-4-yl)-2,2-dimethyl-cyclohexyl]-acetamid], the inhibition at 10 µM amounted to 100%.

In the case of `COc1cc(C)c(S(=O)(=O)Cc2noc(CC(=O)N3CCC(c4ccncc4)CC3)n2)c(C)c1` [SC-41, 2-[3-[[(4-Methoxy-2,6-dimethyl-phenyl)sulfonyl]-methyl]-[1,2,4]oxadiazol-5-yl]-1-(4-pyridin-4-yl-piperidin-1-yl)-ethanon], the inhibition at 10 µM amounted to 97%.

Consider `COc1cc(C)c(S(=O)(=O)Cc2noc(CC(=O)N(C)C3CCN(c4cc(C)nc(C)n4)CC3)n2)c(C)c1` [SC-42, N-[1-(2,6-Dimethyl-pyrimidin-4-yl)-piperidin-4-yl]-2-[3-[[(4-methoxy-2,6-dimethyl-phenyl)sulfonyl]-methyl]-[1,2,4]oxadiazol-5-yl]-N-methyl-acetamid], for which the inhibition at 10 µM came to 99%.

On to `COc1cc(C)c(S(=O)(=O)Cc2noc(C(=O)N(C)[C@H]3CCC[C@@H](N4CCN(C)CC4)C3)n2)c(C)c1` [SC-43, 3-[[(4-Methoxy-2,6-dimethyl-phenyl)sulfonyl]-methyl]-N-methyl-N-[(1S,3R)-3-(4-methyl-piperazin-1-yl)-cyclohexyl]-[1,2,4]oxadiazol-5-carbonsäure amid], for which the inhibition at 10 µM came out at 100%.

For `COc1cc(C)c(S(=O)(=O)Cc2noc(CC(=O)N(C)[C@H]3CCC[C@@H](N4CCN(C)CC4)C3)n2)c(C)c1` [SC-44, 2-[3-[[(4-Methoxy-2,6-dimethyl-phenyl)sulfonyl]-methyl]-[1,2,4]oxadiazol-5-yl]-N-methyl-N-[(1S,3R)-3-(4-methyl-piperazin-1-yl)-cyclohexyl]-acetamid], the inhibition at 10 µM was determined as 100%.

For `COc1cc(C)c(S(=O)(=O)Cc2noc(CC(=O)N(C)C3CCN(C(=O)CCN4CCCCC4)CC3)n2)c(C)c1` [SC-46, 2-[3-[[(4-Methoxy-2,6-dimethyl-phenyl)sulfonyl]-methyl]-[1,2,4]oxadiazol-5-yl]-N-methyl-N-[1-(3-piperidin-1-yl-propanoyl)-piperidin-4-yl]-acetamid], the inhibition at 10 µM amounted to 100%.

`Cc1cccc(Cl)c1S(=O)(=O)Cc1noc(C(=O)N(C)[C@H]2CCC[C@@H](N3CCN(C)CC3)C2)n1` [SC-49, 3-[[(2-Chlor-6-methyl-phenyl)sulfonyl]-methyl]-N-methyl-N-[(1S,3R)-3-(4-methyl-piperazin-1-yl)-cyclohexyl]-[1,2,4]oxadiazol-5-carbonsäure amid]: the inhibition at 10 µM came to 99%.

Take `Cc1cccc(Cl)c1S(=O)(=O)Cc1noc(CC(=O)N(C)[C@H]2CCC[C@@H](N3CCN(C)CC3)C2)n1` [SC-50, 2-[3-[[(2-Chlor-6-methyl-phenyl)sulfonyl]-methyl]-[1,2,4]oxadiazol-5-yl]-N-methyl-N-[(1S,3R)-3-(4-methyl-piperazin-1-yl)-cyclohexyl]-acetamid]: the inhibition at 10 µM turned out to be 89%.

Turning to `COc1cc(C)c(S(=O)(=O)Cc2noc(CC(=O)N3CCN(Cc4ccc(OC)nc4)CC3)n2)c(C)c1` [SC-51, 2-[3-[[(4-Methoxy-2,6-dimethyl-phenyl)sulfonyl]-methyl]-[1,2,4]oxadiazol-5-yl]-1-[4-[(6-methoxy-pyridin-3-yl)-methyl]-piperazin-1-yl]-ethanon], the inhibition at 10 µM is 100%.

For `COc1cc(C)c(S(=O)(=O)Cc2noc(CC(=O)N3CCN(Cc4ccnc(N5CCCC5)c4)CC3)n2)c(C)c1` [SC-52, 2-[3-[[(4-Methoxy-2,6-dimethyl-phenyl)sulfonyl]-methyl]-[1,2,4]oxadiazol-5-yl]-1-[4-[(2-pyrrolidin-1-yl-pyridin-4-yl)-methyl]-piperazin-1-yl]-ethanon], the inhibition at 10 µM stood at 100%.

Take `COc1cc(C)c(S(=O)(=O)Cc2noc(CC(=O)N(C)C3CCN(Cc4ccc(OC)nc4)CC3)n2)c(C)c1` [SC-55, 2-[3-[[(4-Methoxy-2,6-dimethyl-phenyl)sulfonyl]-methyl]-[1,2,4]oxadiazol-5-yl]-N-[1-[(6-methoxy-pyridin-3-yl)-methyl]-piperidin-4-yl]-N-methyl-acetamid]: the inhibition at 10 µM was determined as 100%.

As for `COc1cc(C)c(S(=O)(=O)Cc2noc(CC(=O)N(C)C3CCN(Cc4ccnc(N5CCCC5)c4)CC3)n2)c(C)c1` [SC-57, 2-[3-[[(4-Methoxy-2,6-dimethyl-phenyl)sulfonyl]-methyl]-[1,2,4]oxadiazol-5-yl]-N-methyl-N-[1-[(2-pyrrolidin-1-yl-pyridin-4-yl)-methyl]-piperidin-4-yl]-acetamid], the inhibition at 10 µM is 100%.

Take `COc1cc(C)c(S(=O)(=O)Cc2noc(CC(=O)N(C)C3CCC(N4CCN(C)CC4)CC3)n2)c(C)c1` (stereo not shown) [SC-58, 2-[3-[[(4-Methoxy-2,6-dimethyl-phenyl)sulfonyl]-methyl]-[1,2,4]oxadiazol-5-yl]-N-methyl-N-[4-(4-methyl-piperazin-1-yl)-cyclohexyl]-acetamid]: the inhibition at 10 µM amounted to 100%.

For `COc1cc(C)c(S(=O)(=O)Cc2noc(C(=O)N3CCN(Cc4ccc(OC)nc4)CC3)n2)c(C)c1` [SC-59, [3-[[(4-Methoxy-2,6-dimethyl-phenyl)sulfonyl]-methyl]-[1,2,4]oxadiazol-5-yl]-[4-[(6-methoxy-pyridin-3-yl)-methyl]-piperazin-1-yl]-methanon], the inhibition at 10 µM turned out to be 100%.

On to `COc1cc(C)c(S(=O)(=O)Cc2noc(C(=O)N3CCN(Cc4ccnc(N5CCCC5)c4)CC3)n2)c(C)c1` [SC-60, [3-[[(4-Methoxy-2,6-dimethyl-phenyl)sulfonyl]-methyl]-[1,2,4]oxadiazol-5-yl]-[4-[(2-pyrrolidin-1-yl-pyridin-4-yl)-methyl]-piperazin-1-yl]-methanon], for which the inhibition at 10 µM came to 99%.

Consider `COc1cc(C)c(S(=O)(=O)Cc2noc(C(=O)N3CCN(Cc4ccc(N5CCCC5)nc4)CC3)n2)c(C)c1` [SC-61, [3-[[(4-Methoxy-2,6-dimethyl-phenyl)sulfonyl]-methyl]-[1,2,4]oxadiazol-5-yl]-[4-[(6-pyrrolidin-1-yl-pyridin-3-yl)-methyl]-piperazin-1-yl]-methanon], for which the inhibition at 10 µM was 100%.

As for `COc1cc(C)c(S(=O)(=O)Cc2noc(CC(=O)N3CCN(Cc4ccc(N5CCCC5)nc4)CC3)n2)c(C)c1` [SC-62, 2-[3-[[(4-Methoxy-2,6-dimethyl-phenyl)sulfonyl]-methyl]-[1,2,4]oxadiazol-5-yl]-1-[4-[(6-pyrrolidin-1-yl-pyridin-3-yl)-methyl]-piperazin-1-yl]-ethanon], the inhibition at 10 µM amounted to 100%.

The values are drawn from patent publication EP2857388A1, “Azoles containing sulfone” (Grünenthal GmbH, priority 2013, dated 2015).
